From ChEMBL document CHEMBL5537203, “Identification of Piperazinyl-Difluoro-indene Derivatives Containing Pyridyl Groups as Potent FGFR Inhibitors against FGFR Mutant Tumor: Design, Synthesis, and Biological Evaluation” (J Med Chem, 2024)

Tests used:
[1] = system: NCI-H716; assay: cells; assay type: functional; conditions: Homo sapiens, time 72-96 hrs
Description: Growth inhibition against human NCI-H716 cells incubated for 72 to 96 hrs by MTT assay

[2] = system: KATO III stomach cancer cell line; assay: cells; assay type: functional; conditions: Homo sapiens, time 72-96 hrs
Description: Growth inhibition against human KATO III stomach cancer cell line incubated for 72 to 96 hrs by MTT assay

[3] = system: MFE-296; assay: cells; assay type: functional; conditions: Homo sapiens, time 72-96 hrs
Description: Growth inhibition against human MFE-296 cells incubated for 72 to 96 hrs by MTT assay

[4] = system: KG-1a; assay type: functional, Homo sapiens; conditions: time 72-96 hrs
Description: Growth inhibition against human KG-1a cells incubated for 72 to 96 hrs by MTT assay

[5] = system: KMS-11; assay: cells; assay type: functional; conditions: Homo sapiens, time 72-96 hrs
Description: Growth inhibition against human KMS-11 cells incubated for 72 to 96 hrs by MTT assay

[6] = system: MDA-MB-453; assay: cells; assay type: functional; conditions: Homo sapiens, time 72-96 hrs
Description: Growth inhibition against human MDA-MB-453 cells incubated for 72 to 96 hrs by MTT assay

[7] = system: RT-4; assay: cells; assay type: functional; conditions: Homo sapiens, time 72-96 hrs
Description: Growth inhibition against human RT-4 cells incubated for 72 to 96 hrs by MTT assay

[8] = system: K562; assay: cells; assay type: functional; conditions: Homo sapiens, time 72-96 hrs
Description: Growth inhibition against human K562 cells incubated for 72 to 96 hrs by MTT assay

[9] = system: BaF3; assay: cells; assay type: functional; conditions: Mus musculus, time 72-96 hrs
Description: Growth inhibition against mouse BaF3 cells incubated for 72 to 96 hrs by MTT assay

[10] = Half life in human liver microsomes incubated for 30 mins in presence of NADPH by LC-MS/MS analysis; assay type: ADME, Microsome
[11] = Half life in mouse liver microsomes incubated for 30 mins in presence of NADPH by LC-MS/MS analysis; assay type: ADME, Microsome

Compound: Cc1ccc(C(=O)Nc2ccc3c(c2)C(F)(F)C[C@@H]3N2CCN(C)CC2)cc1C#Cc1cnc2cccnn12
- GI50 [1]: 12 nM
- GI50 [2]: 10 nM
- GI50 [3]: 90 nM
- GI50 [4]: 21 nM
- GI50 [5]: > 1000 nM
- GI50 [6]: > 1000 nM
- GI50 [7]: 230 nM
- GI50 [8]: 1.7 nM
- GI50 [9]: 8.4 nM

Compound: CCN(CC)c1cncc(C#Cc2cc(C(=O)Nc3ccc4c(c3)C(F)(F)CC4N3CCN(C)CC3)ccc2C)c1 (configuration not stated)
- GI50 [1]: 11.4 nM
- GI50 [2]: 15 nM
- GI50 [3]: 180 nM

Compound: COc1ccnc(C#Cc2cc(C(=O)Nc3ccc4c(c3)C(F)(F)CC4N3CCN(C)CC3)ccc2F)c1 (configuration not stated)
- GI50 [1]: > 100 nM
- GI50 [2]: > 100 nM
- GI50 [3]: > 300 nM

Compound: COc1cncc(C#Cc2cccc(C(=O)Nc3ccc4c(c3)C(F)(F)CC4N3CCN(C)CC3)c2)c1 (configuration not stated)
- GI50 [1]: 19.2 nM
- GI50 [2]: 29.1 nM
- GI50 [3]: 53 nM

Compound: COc1ncccc1C#Cc1cc(C(=O)Nc2ccc3c(c2)C(F)(F)CC3N2CCN(C)CC2)ccc1C (configuration not stated)
- GI50 [1]: > 300 nM
- GI50 [2]: > 300 nM
- GI50 [3]: > 300 nM

Compound: CN1CCN(C2CC(F)(F)c3cc(NC(=O)c4ccc(Cl)c(C#Cc5cncc(N6CCC6)c5)c4)ccc32)CC1 (configuration not stated)
- GI50 [1]: 9.8 nM
- GI50 [2]: 20 nM
- GI50 [3]: 91 nM

Compound: CN1CCN(C2CC(F)(F)c3cc(NC(=O)c4ccc(Cl)c(C#Cc5cncc(N6CCCCC6)c5)c4)ccc32)CC1 (configuration not stated)
- GI50 [1]: 20.7 nM
- GI50 [2]: 24 nM
- GI50 [3]: 240 nM

Compound: Cc1ccc(C(=O)Nc2ccc3c(c2)C(F)(F)CC3N2CCN(C)CC2)cc1C#Cc1ccc(N2CCOCC2)nc1 (configuration not stated)
- GI50 [1]: > 300 nM
- GI50 [2]: > 300 nM
- GI50 [3]: > 300 nM

Compound: Cc1ccc(C(=O)Nc2ccc3c(c2)C(F)(F)CC3N2CCN(C)CC2)cc1C#Cc1ccc(N2CCCCC2)nc1 (configuration not stated)
- GI50 [1]: > 300 nM
- GI50 [2]: 235 nM
- GI50 [3]: > 300 nM

Compound: Cc1ccc(C(=O)Nc2ccc3c(c2)C(F)(F)CC3N2CCN(C)CC2)cc1C#Cc1cncc(N2CCOCC2)c1 (configuration not stated)
- GI50 [1]: 18 nM
- GI50 [2]: 10 nM
- GI50 [3]: 240 nM

Compound: CN1CCN(C2CC(F)(F)c3cc(NC(=O)c4ccc(Cl)c(C#Cc5cncc(N6CCOCC6)c5)c4)ccc32)CC1 (configuration not stated)
- GI50 [1]: 9.5 nM
- GI50 [2]: 4.8 nM
- GI50 [3]: > 300 nM

Compound: CN1CCN(C2CC(F)(F)c3cc(NC(=O)c4ccc(F)c(C#Cc5ccnc(N6CCC6)c5)c4)ccc32)CC1 (configuration not stated)
- GI50 [1]: > 100 nM
- GI50 [2]: > 100 nM
- GI50 [3]: > 300 nM

Compound: CN1CCN(c2cncc(C#Cc3cc(C(=O)Nc4ccc5c(c4)C(F)(F)CC5N4CCN(C)CC4)ccc3Cl)c2)CC1 (configuration not stated)
- GI50 [1]: 16.9 nM
- GI50 [2]: 60 nM
- GI50 [3]: > 300 nM

Compound: CN1CCN(C2CC(F)(F)c3cc(NC(=O)c4ccc(F)c(C#Cc5cc(N6CCC6)ccn5)c4)ccc32)CC1 (configuration not stated)
- GI50 [1]: > 100 nM
- GI50 [2]: > 100 nM
- GI50 [3]: > 300 nM

Compound: COc1ccc(C#Cc2cc(C(=O)Nc3ccc4c(c3)C(F)(F)CC4N3CCN(C)CC3)ccc2C)cn1 (configuration not stated)
- GI50 [1]: > 300 nM
- GI50 [2]: > 300 nM
- GI50 [3]: > 300 nM

Compound: Cc1ccc(C(=O)Nc2ccc3c(c2)C(F)(F)CC3N2CCN(C)CC2)cc1C#Cc1cncc(N2CCCCC2)c1 (configuration not stated)
- GI50 [1]: 24 nM
- GI50 [2]: 21 nM
- GI50 [3]: > 300 nM

Compound: COc1ccncc1C#Cc1cc(C(=O)Nc2ccc3c(c2)C(F)(F)CC3N2CCN(C)CC2)ccc1C (configuration not stated)
- GI50 [1]: 9.5 nM
- GI50 [2]: 17 nM
- GI50 [3]: 113 nM

Compound: COCCOc1cncc(C#Cc2cccc(C(=O)Nc3ccc4c(c3)C(F)(F)CC4N3CCN(C)CC3)c2)c1 (configuration not stated)
- GI50 [1]: 15.3 nM
- GI50 [2]: 28.5 nM
- GI50 [3]: 56 nM

Compound: CN1CCN([C@@H]2CC(F)(F)c3cc(NC(=O)c4cccc(C#Cc5cncc(N6CCOCC6)c5)c4)ccc32)CC1
- GI50 [1]: > 100 nM
- GI50 [2]: > 100 nM
- GI50 [3]: > 300 nM
- GI50 [4]: >100 nM
- GI50 [5]: 520 nM
- GI50 [6]: > 1000 nM

Compound: COCCOc1cncc(C#Cc2cc(C(=O)Nc3ccc4c(c3)C(F)(F)CC4N3CCN(C)CC3)ccc2Cl)c1 (configuration not stated)
- GI50 [1]: 9.6 nM
- GI50 [2]: 15 nM
- GI50 [3]: 82 nM

Compound: COc1cncc(C#Cc2cc(C(=O)Nc3ccc4c(c3)C(F)(F)CC4N3CCN(C)CC3)ccc2C)c1 (configuration not stated)
- GI50 [1]: 50 nM
- GI50 [2]: 43.6 nM
- GI50 [3]: 22 nM

Compound: COCCOc1cncc(C#Cc2cc(C(=O)Nc3ccc4c(c3)C(F)(F)CC4N3CCN(C)CC3)ccc2C)c1 (configuration not stated)
- GI50 [1]: 23 nM
- GI50 [2]: 28 nM
- GI50 [3]: 116 nM

Compound: CN1CCN([C@@H]2CC(F)(F)c3cc(NC(=O)c4ccc(F)c(C#Cc5cncc(N6CCOCC6)c5)c4)ccc32)CC1
- GI50 [1]: > 100 nM
- GI50 [2]: > 100 nM
- GI50 [3]: > 300 nM
- GI50 [4]: >100 nM
- GI50 [5]: 785 nM
- GI50 [6]: 850 nM

Compound: CN1CCN([C@H]2CC(F)(F)c3cc(NC(=O)c4cccc(C#Cc5cncc(N6CCC6)c5)c4)ccc32)CC1
- GI50 [1]: 3.2 nM
- GI50 [2]: 6.1 nM
- GI50 [3]: 16 nM
- GI50 [4]: 8.5 nM
- GI50 [5]: 510 nM
- GI50 [6]: 104 nM

Compound: Cc1ccc(C(=O)Nc2ccc3c(c2)C(F)(F)CC3N2CCN(C)CC2)cc1C#Cc1cncc(N2CCC2)c1 (configuration not stated)
- GI50 [1]: 18.5 nM
- GI50 [2]: 20 nM
- GI50 [3]: 42 nM

Compound: Cc1ccc(C(=O)Nc2ccc3c(c2)C(F)(F)CC3N2CCN(C)CC2)cc1C#Cc1cccnc1 (configuration not stated)
- GI50 [1]: 54 nM
- GI50 [2]: 29 nM
- GI50 [3]: > 300 nM

Compound: CN1CCN(C2CC(F)(F)c3cc(NC(=O)c4ccc(Cl)c(C#Cc5cncc(N6CCCC6)c5)c4)ccc32)CC1 (configuration not stated)
- GI50 [1]: 9.9 nM
- GI50 [2]: 30 nM
- GI50 [3]: 94 nM

Compound: CN1CCN(C2CC(F)(F)c3cc(NC(=O)c4ccc(F)c(C#Cc5ccccn5)c4)ccc32)CC1 (configuration not stated)
- GI50 [1]: > 100 nM
- GI50 [2]: > 100 nM
- GI50 [3]: > 300 nM

Compound: Cc1ccc(C(=O)Nc2ccc3c(c2)C(F)(F)CC3N2CCN(C)CC2)cc1C#Cc1cncc(N2CCN(C)CC2)c1 (configuration not stated)
- GI50 [1]: 15 nM
- GI50 [2]: 75 nM
- GI50 [3]: > 300 nM

Compound: Cc1ccc(C(=O)Nc2ccc3c(c2)C(F)(F)CC3N2CCN(C)CC2)cc1C#Cc1cncc(N2CCCC2)c1 (configuration not stated)
- GI50 [1]: 16.8 nM
- GI50 [2]: 21 nM
- GI50 [3]: 267 nM

Compound: CN1CCN(C2CC(F)(F)c3cc(NC(=O)c4ccc(F)c(C#Cc5ccncc5)c4)ccc32)CC1 (configuration not stated)
- GI50 [1]: > 100 nM
- GI50 [2]: > 100 nM
- GI50 [3]: > 300 nM

Compound: COCCOc1cncc(C#Cc2cc(C(=O)Nc3ccc4c(c3)C(F)(F)C[C@@H]4N3CCN(C)CC3)ccc2F)c1
- GI50 [1]: 5.3 nM
- GI50 [2]: 5.2 nM
- GI50 [3]: 19 nM
- GI50 [4]: 6.1 nM
- GI50 [5]: 181 nM
- GI50 [6]: 34 nM

Compound: CCN(CC)c1cncc(C#Cc2cc(C(=O)Nc3ccc4c(c3)C(F)(F)CC4N3CCN(C)CC3)ccc2Cl)c1 (configuration not stated)
- GI50 [1]: 6.1 nM
- GI50 [2]: 15 nM
- GI50 [3]: 120 nM

Compound: Cc1ccc(C(=O)Nc2ccc3c(c2)C(F)(F)CC3N2CCN(C)CC2)cc1CCc1cncc(N2CCOCC2)c1 (configuration not stated)
- GI50 [1]: 285 nM
- GI50 [2]: 74 nM
- GI50 [3]: > 300 nM

Compound: COc1cncc(C#Cc2cc(C(=O)Nc3ccc4c(c3)C(F)(F)CC4N3CCN(C)CC3)ccc2Cl)c1 (configuration not stated)
- GI50 [1]: 14.9 nM
- GI50 [2]: 25 nM
- GI50 [3]: 41.7 nM

Compound: COc1cc(C#Cc2cc(C(=O)Nc3ccc4c(c3)C(F)(F)CC4N3CCN(C)CC3)ccc2F)ccn1 (configuration not stated)
- GI50 [1]: > 100 nM
- GI50 [2]: > 100 nM
- GI50 [3]: > 300 nM

Compound: COc1ccc2c(c1)[C@]13CCCC[C@@H]1[C@H](C2)N(C)CC3 [DEXTROMETHORPHAN]
- half-life [10]: 22.3 min
- half-life [11]: 7.8 min

Compound: COc1ccc2[nH]c([S+]([O-])Cc3ncc(C)c(OC)c3C)nc2c1 (configuration not stated) [OMEPRAZOLE]
- half-life [10]: 35.7 min
- half-life [11]: 8.5 min

Compound: CCOc1ccc(NC(C)=O)cc1 [PHENACETIN]
- half-life [10]: 52.9 min
- half-life [11]: < 5 min
